{"source": "patent US6506417B1", "about": "“Composition and process for reducing bacterial citrus canker organisms” (FMC Technologies, Inc., priority 2001, dated 2003)", "key": {"[1]": {"system": "X. axonopodis pv. citrumelo", "assay": "Dose-response study, 1 minute exposure to peracetic acid dilutions", "type": "cell-based", "method": "Four strains of X. axonopodis pv. citrumelo were obtained from the Florida Department of Citrus and propagated in Nutrient Broth (Difco) at 22° C. with agitation for 48 to 72 hours. Cells were pelleted at 5,000 rpm/16 minutes, washed with Butterfield's Phosphate (pH 7.2) and resuspended in approximately 10% of the initial culture volume with Butterfield's Phosphate in order to concentrate the cells 10×. This final concentrate was used as the inoculum for the dose-response study. FMC VigorOx Liquid Sanitizer and Disinfectant (5% peracetic acid) and VigorOx SP-15 Antimicrobial Agent (15% peracetic acid) were diluted to final peracetic acid concentrations of 0 ppm (control), 5 ppm, 10 ppm, 20 ppm, 30 ppm, 40 ppm, 50 ppm, 60 ppm, 70 ppm, and 80 ppm with distilled water. Each variable was dispensed in 9.9 ml aliquots in sterile test tubes.\nA 0.1 ml aliquot of the inoculum was added to each peracetic acid variable, shaken, and allowed to remain exposed to the solution for 1 minute. […]\nData summaries of trials performed on each product are expressed in the following tables. […] The initial inoculum was determined to contain 2.9×10^11 cfu/ml X. axonopodis, and the initial level of X. axonopodis exposed to each concentration of peracetic acid was determined to be 2.9×10^9 cfu/ml."}, "[2]": {"system": "Xanthomonas campestris pv. vesicatoria", "details": "200 μg/ml; cited from earlier work"}}}
{"compound": "CC(=O)OO", "note": "[peroxyacetic acid]", "values": [{"measurement": "reduction of X. axonopodis", "setting": "[1]; 30 parts per million peroxyacetic acid, and above", "result": "> 99.9", "unit": "%"}, {"measurement": "significant reduction of X. axonopodis", "setting": "[1]; greater than 10 but less than 20 parts per million peroxyacetic acid", "result": "> 1", "unit": "log10 cfu/ml"}, {"measurement": "level of eradication", "setting": "[2]", "result": "acceptable level of eradication comparable to approved chlorine treatments"}]}
